Laboratory results as given in the supplement of paper PMC10331698.
± gives the standard deviation of the averaged measurements.

Tests used:
Experiment in all cases: level (log10 ratio to DMSO vehicle control); higher = higher biomarker level / cell amount than vehicle control
Settings in all cases: in DMSO
Perfluorooctanoic acid = compound: O=C(O)C(F)(F)C(F)(F)C(F)(F)C(F)(F)C(F)(F)C(F)(F)C(F)(F)F [Perfluorooctanoic acid]
Description: (§1)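 BioMAP Diversity Plus panel of 12 human primary cell co-culture systems (3C, 4H, LPS, SAg, BT, BF4T, BE3C, CASM3C, HDF3CGF, KF3CT, MyoF, Mphg). Compounds were added 1 h before stimulation and left for 24 h (MyoF 48 h; BT 72 h for soluble read-outs or 6 d for IgG). Biomarkers were read by ELISA, cytotoxicity by SRB, PBMC viability and proliferation by Alamar Blue. Each well value was divided by the mean of 8 DMSO control wells on the same plate and log10 transformed; duplicate blinded samples were tested at 4 concentrations.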

Tetrafluorosuccinic acid = compound: O=C(O)C(F)(F)C(F)(F)C(=O)O [Tetrafluorosuccinic acid]
Description: as §1

[1] = compound: FC(F)(F)COC(OCC(F)(F)F)OCC(F)(F)F [tris(Trifluoroethoxy)methane]
Description: as §1

[2] = compound: Cc1ccc(S(=O)(=O)OCC(F)(F)C(F)(F)C(F)(F)C(F)(F)C(F)(F)C(F)F)cc1 [1H,1H,7H-Perfluoroheptyl 4-methylbenzenesulfonate]
Description: as §1

Perfluoropinacol = compound: OC(C(F)(F)F)(C(F)(F)F)C(O)(C(F)(F)F)C(F)(F)F [Perfluoropinacol]
Description: as §1

Methotrexate = compound: CN(Cc1cnc2nc(N)nc(N)c2n1)c1ccc(C(=O)N[C@@H](CCC(=O)O)C(=O)O)cc1 [Methotrexate]
Description: as §1

Test System | level (log10) (Perfluorooctanoic acid; 6700 nM) | level (log10) (Perfluorooctanoic acid; 20000 nM) | level (log10) (Perfluorooctanoic acid; 60000 nM) | level (log10) (Tetrafluorosuccinic acid; 6700 nM) | level (log10) (Tetrafluorosuccinic acid; 20000 nM) | level (log10) (Tetrafluorosuccinic acid; 60000 nM) | level (log10) ([1]; 6700 nM) | level (log10) ([1]; 20000 nM) | level (log10) ([1]; 60000 nM) | level (log10) ([2]; 6700 nM) | level (log10) ([2]; 20000 nM) | level (log10) ([2]; 60000 nM) | level (log10) (Perfluoropinacol; 6700 nM) | level (log10) (Perfluoropinacol; 20000 nM) | level (log10) (Methotrexate; 1500 nM) | level (log10) (Methotrexate; 4400 nM) | level (log10) (Methotrexate; 13000 nM) | level (log10) (Methotrexate; 40000 nM)
lMphg:CXCL8/IL-8 | 0.009 ± 0.021 | 0.073 ± 0.048 | 0.175 ± 0.054 | -0.0205 ± 0.0064 | -0.025 ± 0.021 | -0.0175 ± 0.023 | -0.0095 ± 0.016 | -0.018 ± 0.0042 | -0.007 ± 0.044 | 0.022 ± 0.0057 | 0 | 0.022 ± 0.057 | 0.0875 ± 0.061 | 0.161 ± 0.066 | 0.0075 ± 0.046 | -0.017 | 0.003 ± 0.023 | 0.044 ± 0.0057
3C:CD62E/E-Selectin | 0.001 ± 0.0042 | 0.0195 ± 0.0035 | 0.0725 ± 0.0078 | -0.0015 ± 0.016 | -0.0155 ± 0.0064 | -0.01 ± 0.0099 | -0.022 ± 0.0014 | -0.0185 ± 0.0078 | -0.0245 ± 0.0035 | -0.0085 ± 0.005 | -0.03 ± 0.0057 | -0.081 ± 0.016 | -0.007 ± 0.013 | -0.0605 ± 0.03 | 0.007 ± 0.0057 | -0.0145 ± 0.0035 | -0.004 ± 0.02 | 0.01 ± 0.011
3C:CD141/Thrombomodulin | 0.023 ± 0.065 | -0.011 ± 0.081 | -0.0115 ± 0.039 | -0.0285 ± 0.039 | -0.048 ± 0.024 | -0.038 ± 0.0085 | -0.012 ± 0.061 | -0.038 ± 0.047 | -0.0425 ± 0.049 | 0.008 ± 0.0028 | 0.021 ± 0.0014 | 0.0395 ± 0.00071 | -0.0165 ± 0.0021 | -0.033 ± 0.034 | -0.024 ± 0.0085 | -0.016 ± 0.0057 | -0.0235 ± 0.067 | -0.0265 ± 0.019
HDF3CGF:M-CSF | -0.0205 ± 0.04 | 0.013 ± 0.0028 | 0.0235 ± 0.016 | -0.0505 ± 0.018 | -0.0735 ± 0.0035 | -0.048 ± 0.0099 | -0.0005 ± 0.00071 | -0.0125 ± 0.005 | 0.022 ± 0.037 | -0.0385 ± 0.0021 | -0.0225 ± 0.036 | -0.0095 ± 0.013 | -0.024 ± 0.055 | -0.239 ± 0.049 | -0.051 ± 0.076 | -0.0445 ± 0.077 | -0.033 ± 0.1 | -0.0655 ± 0.17
HDF3CGF:CCL2/MCP-1 | -0.0345 ± 0.044 | -0.0305 ± 0.04 | -0.0085 ± 0.057 | -0.035 ± 0.0099 | -0.0415 ± 0.0064 | -0.0275 ± 0.012 | 0.0035 ± 0.06 | 0.006 ± 0.051 | 0.0165 ± 0.035 | -0.0645 ± 0.026 | -0.108 ± 0.013 | -0.091 ± 0.0042 | 0.0595 ± 0.0064 | 0.09 ± 0.0085 | -0.0395 ± 0.059 | -0.0325 ± 0.093 | -0.0425 ± 0.071 | -0.0435 ± 0.11
BE3C:PAI-I | 0.001 ± 0.0042 | 0.0395 ± 0.013 | 0.041 ± 0.0028 | -0.011 ± 0.0071 | 0.002 ± 0.018 | -0.001 ± 0.023 | -0.0015 ± 0.0035 | -0.0005 ± 0.00071 | -0.0045 ± 0.00071 | -0.0365 ± 0.019 | -0.0745 ± 0.016 | -0.057 ± 0.0099 | -0.119 ± 0.016 | -0.189 ± 0.0085 | -0.0595 ± 0.015 | -0.031 ± 0.045 | -0.051 ± 0.048 | -0.0665 ± 0.084
lMphg:sIL-10 | -0.0525 ± 0.032 | -0.0035 ± 0.11 | -0.219 ± 0.051 | -0.0085 ± 0.016 | -0.0265 ± 0.097 | 0.0415 ± 0.11 | -0.045 ± 0.075 | -0.061 ± 0.037 | -0.0855 ± 0.091 | -0.194 ± 0.063 | -0.0825 ± 0.14 | -0.0155 ± 0.091 | 0.031 ± 0.017 | -0.498 ± 0.24 | 0.076 ± 0.03 | 0.05 ± 0.011 | 0.0485 ± 0.023 | 0.014 ± 0.028
KF3CT:CD54/ICAM-1 | -0.015 ± 0.011 | -0.011 ± 0.0028 | -0.0095 ± 0.018 | 0.011 ± 0.0085 | 0.003 | 0.025 ± 0.0042 | -0.015 | -0.021 ± 0.0014 | -0.006 ± 0.023 | 0.003 ± 0.0057 | 0.001 ± 0.0042 | 0 ± 0.0042 | 0.012 ± 0.0099 | 0.0185 ± 0.015 | -0.0085 ± 0.012 | -0.011 ± 0.0014 | 0.006 ± 0.0071 | 0.007 ± 0.0042
MyoF:Collagen III | 0.007 ± 0.0028 | -0.001 ± 0.0071 | -0.039 ± 0.0099 | -0.013 ± 0.016 | -0.0205 ± 0.005 | -0.016 ± 0.0099 | 0.0035 ± 0.0035 | -0.0005 ± 0.019 | 0.009 ± 0.0042 | -0.0075 ± 0.00071 | -0.0495 ± 0.022 | -0.056 ± 0.02 | -0.0405 ± 0.011 | -0.136 ± 0.0014 | -0.011 ± 0.04 | -0.001 ± 0.065 | 0.009 ± 0.069 | 0.014 ± 0.041
HDF3CGF:CXCL9/MIG | 0.001 ± 0.0057 | -0.0245 ± 0.036 | -0.0095 ± 0.028 | -0.0285 ± 0.029 | -0.039 ± 0.065 | -0.06 ± 0.086 | 0.007 ± 0.0099 | 0.002 ± 0.0071 | -0.017 ± 0.018 | -0.002 ± 0.0099 | 0.061 ± 0.025 | 0.048 ± 0.037 | -0.018 ± 0.018 | -0.0675 ± 0.012 | 0.002 ± 0.045 | -0.003 ± 0.023 | -0.0205 ± 0.036 | -0.0165 ± 0.057
KF3CT:PAI-I | 0.0005 ± 0.021 | -0.015 ± 0.02 | -0.079 ± 0.0028 | -0.0465 ± 0.037 | -0.0005 ± 0.0021 | 0 ± 0.0014 | -0.0035 ± 0.0035 | -0.006 ± 0.0014 | 0.0025 ± 0.0092 | -0.016 ± 0.02 | 0.0005 ± 0.0078 | -0.032 ± 0.0042 | 0.001 ± 0.0042 | -0.0435 ± 0.012 | 0.006 ± 0.014 | -0.036 ± 0.031 | -0.0145 ± 0.025 | -0.007 ± 0.1
CASM3C:M-CSF | 0.0005 ± 0.012 | -0.004 ± 0.021 | 0.0145 ± 0.022 | -0.008 ± 0.035 | -0.015 ± 0.016 | 0.0095 ± 0.033 | -0.0565 ± 0.015 | -0.03 ± 0.021 | 0.013 ± 0.037 | -0.024 ± 0.0028 | -0.0445 ± 0.013 | 0.007 ± 0.051 | 0.0505 ± 0.0021 | 0.0315 ± 0.0092 | 0.0285 ± 0.013 | -0.051 ± 0.027 | -0.0455 ± 0.0021 | -0.0275 ± 0.081
lMphg:SRB-Mphg | -0.0085 ± 0.013 | 0.0005 ± 0.005 | -0.002 ± 0.03 | -0.0035 ± 0.015 | -0.0075 ± 0.013 | -0.013 ± 0.016 | -0.026 ± 0.013 | -0.038 ± 0.044 | -0.008 ± 0.027 | 0.033 ± 0.0028 | -0.013 ± 0.03 | 0.0155 ± 0.036 | -0.015 ± 0.0099 | -0.05 ± 0.0028 | -0.105 ± 0.073 | -0.0855 ± 0.0021 | -0.105 ± 0.064 | 0.0295 ± 0.025
BE3C:MMP-1 | -0.0085 ± 0.012 | 0.044 | 0.226 ± 0.035 | -0.0025 ± 0.011 | -0.0125 ± 0.0078 | 0.032 ± 0.038 | 0.004 ± 0.059 | 0.004 ± 0.025 | 0.01 ± 0.0099 | 0.044 ± 0.0099 | 0.051 ± 0.038 | 0.094 ± 0.061 | 0.0275 ± 0.0021 | -0.003 ± 0.0057 | -0.028 ± 0.024 | -0.011 ± 0.044 | 0.034 ± 0.016 | 0.031 ± 0.014
HDF3CGF:Collagen I | -0.025 ± 0.0028 | 0.0005 ± 0.016 | 0.0395 ± 0.054 | -0.0515 ± 0.025 | -0.0235 ± 0.018 | -0.0305 ± 0.029 | 0.0165 ± 0.061 | 0.0025 ± 0.042 | 0.0345 ± 0.03 | 0.025 ± 0.051 | 0.0485 ± 0.066 | 0.027 ± 0.052 | -0.0205 ± 0.0092 | -0.0685 ± 0.015 | -0.0495 ± 0.079 | -0.077 ± 0.083 | -0.068 ± 0.095 | -0.0415 ± 0.035
lMphg:SRB | -0.008 ± 0.0071 | -0.0005 ± 0.005 | 0.011 ± 0.017 | -0.008 ± 0.0014 | 0.001 | 0.001 ± 0.013 | -0.0035 ± 0.011 | -0.0025 ± 0.0021 | 0.0045 ± 0.023 | 0.004 ± 0.013 | -0.002 ± 0.0042 | -0.0055 ± 0.00071 | -0.0315 ± 0.0035 | -0.144 ± 0.0064 | 0.0015 ± 0.0064 | -0.0005 ± 0.00071 | -0.002 ± 0.0085 | 0.0055 ± 0.00071
